Read-outs that look alike come from different tables or passages of the source.
Biological target: Glutaminyl cyclase (QC) (Homo sapiens (Human), UniProt Q16769)
Assay: Glutaminyl cyclase assay, determination of IC50 values and calculation of Ki values (H-Gln-AMC substrate, pGAP auxiliary enzyme; pH 8.0 or pH 6.0)
Assay type: biochemical
Experimental: 10 mM compound stock solutions were prepared in DMSO. For IC50 determination compound stocks were serially diluted (1:3) in DMSO.
All measurements were performed with an EnSpire Perkin Elmer multimode reader using glutaminyl-7-amino-4-methylcoumarin (H-Gin-AMC) as substrate and recombinant pyroglutamyl aminopeptidase (pGAP) as auxiliary enzyme. Reactions were carried out at ambient temperature in black 96-well half area microplates. Each sample consisted of 1 μl test compound solution or solvent (DMSO) and 49 μl QC appropriately diluted in assay buffer (50 mM Tris/HCl, pH 8.0 or 50 mM MES buffer, pH=6.0). After a 10 min preincubation at ambient temperature the enzyme reaction was started by adding 50 μl of Gln-AMC-substrate/pGAP mixture in assay buffer. Final substrate concentrations were 50 and 200 μM for measurement at pH 8.0 or 6.0, respectively. Release of flourogenic AMC were recorded at excitation/emission wavelengths of 380/460 nm. Initial velocity of the enzyme reaction was calculated by linear regression of the first 10 data points using the Enspire Manager software. Final evaluation and calculation of IC50s were performed using GraphPad Prism software.
Ki-values were calculated according to the following formula: Ki=IC50/(1+[S]/Km), where: […]

[1] = pH 6, read-out: hQC Ki [μM] pH6
[2] = pH 8, read-out: hQC Ki [μM] pH8

Glutaminyl cyclase (QC), sequence (Q16769 29-361): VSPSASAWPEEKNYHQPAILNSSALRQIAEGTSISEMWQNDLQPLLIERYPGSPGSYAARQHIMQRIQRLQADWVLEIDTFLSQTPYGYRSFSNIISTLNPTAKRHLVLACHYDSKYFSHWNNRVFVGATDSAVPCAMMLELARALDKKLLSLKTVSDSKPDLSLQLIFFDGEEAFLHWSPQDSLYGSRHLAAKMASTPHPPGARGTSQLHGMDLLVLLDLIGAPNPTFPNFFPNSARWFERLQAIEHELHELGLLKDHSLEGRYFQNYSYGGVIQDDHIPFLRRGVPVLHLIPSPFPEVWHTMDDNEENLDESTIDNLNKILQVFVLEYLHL

| Ki [1] | Ki [2] | SMILES |
| --- | --- | --- |
| 2.93 µM | 2.64 µM | Nc1ncc(-c2ccc(NS(=O)(=O)c3ccc(F)cc3)cc2)s1 [I1, N-[4-(2-amino-1,3-thiazol-5-yl)phenyl]-4-fluorobenzene-1-sulfonamide] |
| 0.055 µM | 0.1 µM | COc1ccc(-c2c(F)cccc2NCc2ccc3[nH]cnc3c2)cc1OC [O23, N-(1H-1,3-benzodiazol-5-ylmethyl)-2-(3,4-dimethoxyphenyl)-3-fluoroaniline] |
| 18.1 µM | 9.38 µM | Nc1nnc(CCCNS(=O)(=O)c2ccc(F)cc2)s1 [E2, N-[3-(5-amino-1,3,4-thiadiazol-2-yl)propyl]-4-fluorobenzene-1-sulfonamide] |
| 2.6 µM | 1100 µM | Nc1nnc(CCCNc2ccccc2-c2ccc(F)cc2)s1 [Comp 93, 5-[3-({4′-fluoro-[1,1′-biphenyl]-2-yl}amino)propyl]-1,3,4-thiadiazol-2-amine] |
| 13.6 µM | 11.8 µM | COc1ccc(NS(=O)(=O)NCCSc2nncn2C)cc1OC [Comp 1332, [(3,4-dimethoxyphenyl)sulfamoyl]({2-[(4-methyl-4H-1,2,4-triazol-3-yl)sulfanyl]ethyl})amine] |
| 2.15 µM | 2.36 µM | CCCOc1ccc(-c2ccccc2Nc2ccc(-c3nnc(N)s3)cc2)cc1 [C11, 5-(4-([2-(4-propoxyphenyl)phenyl]amino)phenyl)-1,3,4-thiadiazol-2-amine] |
| 2.38 µM | 1.64 µM | COc1ccc(-c2c(C)cccc2NCc2ccc3[nH]cnc3c2)cc1 [O20, N-(1H-1,3-benzodiazol-5-ylmethyl)-2-(4-methoxyphenyl)-3-methylaniline] |
| 2.03 µM | 4.17 µM | c1ccc(-c2ccc(OC3CCCCC3)cc2)c(NCc2ccc3[nH]cnc3c2)c1 [O17, N-(1H-1,3-benzodiazol-5-ylmethyl)-2-[4-(cyclohexyloxy)phenyl]aniline] |
| 3.05 µM | 3.3 µM | Cn1cnnc1C1CCN(S(=O)(=O)c2ccc(F)cc2)CC1 [N1, 1-(4-fluorobenzenesulfonyl)-4-(4-methyl-4H-1,2,4-triazol-3-yl)piperidine] |
| 19.9 µM | 26.5 µM | Nc1nnc(SCCNS(=O)(=O)c2ccc(F)cc2)s1 [E3, N-{2-[(5-amino-1,3,4-thiadiazol-2-yl)sulfanyl]ethyl}-4-fluorobenzene-1-sulfonamide] |
| 4.34 µM | 2.11 µM | c1ccc(Oc2ccc(-c3ccccc3NCc3ccc4[nH]cnc4c3)cc2)cc1 [O16, N-(1H-1,3-benzodiazol-5-ylmethyl)-2-(4-phenoxyphenyl)aniline] |
| 10.5 µM | 11.7 µM | Fc1ccc(-c2nccnc2NCc2ccc3[nH]cnc3c2)cc1 [O15, N-(1H-1,3-benzodiazol-5-ylmethyl)-3-(4-fluorophenyl)pyrazin-2-amine] |
| 1.7 µM | 3.37 µM | COc1ccc(-c2ncccc2Nc2ccc(-c3nncn3C)cc2)cc1 [D4, 2-(4-methoxyphenyl)-N-[4(4-methyl-4H-1,2,4-triazol-3-yl)phenyl]pyridin-3-amine] |
| 2.74 µM | 2.41 µM | COc1ccc(-c2cccnc2NCc2ccc3[nH]cnc3c2)cc1 [O5, N-(1H-1,3-benzodiazol-5-ylmethyl)-3-(4-methoxyphenyl)pyridin-2-amine] |
| 2.97 µM | 11.5 µM | Nc1nnc(SCCNc2ccccc2-c2ccc(F)cc2)s1 [Comp 94, 5-{[2-({4′-fluoro-[1,1′-biphenyl]-2-yl}amino)ethyl]sulfanyl}-1,3,4-thiadiazol-2-amine] |
| 0.13 µM | 0.26 µM | COc1ccc(-c2ccccc2NCCCc2nncn2C)cc1OC [Comp 384, 3′,4′-dimethoxy-N-[3-(4-methyl-4H-1,2,4-triazol-3-yl)propyl]-[1,1′-biphenyl]-2-amine] |
| 0.1 µM | 0.23 µM | COc1ccc(-c2cccnc2NCc2ccc3[nH]cnc3c2)cc1OC [Comp 1262, N-(1H-1,3-benzodiazol-5-ylmethyl)-3-(3,4-dimethoxyphenyl)pyridin-2-amine] |
| 9.52 µM | 2.96 µM | COc1ccc(-c2ncccc2NCc2ccc3[nH]cnc3c2)cc1 [O4, N-(1H-1,3-benzodiazol-5-ylmethyl)-2-(4-methoxyphenyl)pyridin-3-amine] |
| 4.37 µM | 2.23 µM | Nc1nnc(-c2ccc(Nc3ccccc3-c3ccc(Oc4ccccc4)cc3)cc2)s1 [C10, 5-(4-{[2-(4-phenoxyphenyl)phenyl]amino}phenyl)-1,3,4-thiadiazol-2-amine] |
| 0.44 µM | 1.48 µM | COc1ccc(-c2ccccc2Nc2ccc(-c3nncn3C)cc2)cc1OC [Comp 854, 3′,4′-dimethoxy-N-[4-(4-methyl-4H-1,2,4-triazol-3-yl)phenyl]-[1,1′-biphenyl]-2-amine] |

| Ki [1] | Ki [2] | SMILES |
| --- | --- | --- |
| 1.18 µM | 1.6 µM | Nc1nnc(C2CCN(S(=O)(=O)c3ccc(F)cc3)CC2)s1 [M2, 5-[1-(4-fluorobenzenesulfonyl)piperidin-4-yl]-1,3,4-thiadiazol-2-amine] |
| 0.09 µM | 0.248 µM | Nc1nnc(C2CCN(c3ccccc3-c3ccc(F)cc3)CC2)s1 [Comp 1075, 5-(1-{4′-fluoro-[1,1′-biphenyl]-2-yl}piperidin-4-yl)-1,3,4-thiadiazol-2-amine] |
| 1.97 µM | 2.86 µM | Cn1cnnc1CCCNc1ccccc1-c1ccc(F)cc1 [Comp 328, 4′-fluoro-N-[3-(4-methyl-4H-1,2,4-triazol-3-yl)propyl]-[1,1′-biphenyl]-2-amine] |
| 1.32 µM | 1.7 µM | Nc1ncc(C2CCN(S(=O)(=O)c3ccc(F)cc3)CC2)s1 [M1, 5-[1-(4-fluorobenzenesulfonyl)piperidin-4-yl]-1,3-thiazol-2-amine] |
| 1.1 µM | 0.97 µM | COc1ccc(-c2ccccc2NCCSc2nnc(N)s2)cc1OC [Comp 178, 5-{[2-({3′,4′-dimethoxy-[1,1′-biphenyl]-2-yl}amino)ethyl]sulfanyl}-1,3,4-thiadiazol-2-amine] |
| 1.44 µM | 1.65 µM | COc1ccc(-c2ccccc2NCc2ccc3[nH]cnc3c2)cc1 [O3, N-(1H-1,3-benzodiazol-5-ylmethyl)-2-(4-methoxyphenyl)aniline] |
| 1.63 µM | 0.88 µM | COc1ccc(-c2cnccc2NCc2ccc3[nH]cnc3c2)cc1OC [O10, N-(1H-1,3-benzodiazol-5-ylmethyl)-3-(3,4-dimethoxyphenyl)pyridin-4-amine] |
| 1.87 µM | 1.48 µM | COc1ccc(-c2ccccc2Nc2ccc(-c3nnc(N)s3)cc2)cc1 [C4, 5-(4-{[2-(4-methoxyphenyl)phenyl]amino}phenyl)-1,3,4-thiadiazol-2-amine] |
| 0.12 µM | 0.27 µM | COc1ccc(-c2ccccc2NCc2ccc3[nH]cnc3c2)cc1OC [Comp 1254, N-[(1H-1,3-benzodiazol-5-yl)methyl]-3′,4′-dimethoxy-[1,1′-biphenyl]-2-amine] |
| 11.4 µM | 11.7 µM | CS(=O)(=NCCCc1nnc(N)s1)c1ccc(F)cc1 (centres unmarked) [F2, 5-(3-{[(4-fluorophenyl)(methyl)oxo-λ^6-sulfanylidene]amino}propyl)-1,3,4-thiadiazol-2-amine] |
| 5.91 µM | 5.29 µM | Fc1ccc(-c2ccccc2NCc2ccc3[nH]cnc3c2)cc1 [Comp 1226, N-[(1H-1,3-benzodiazol-5-yl)methyl]-4′-fluoro-[1,1′-biphenyl]-2-amine] |
| 38.3 µM | 24.7 µM | O=S(=O)(NCc1ccc2[nH]cnc2c1)c1ccc(F)cc1 [P1, N-[(1H-1,3-benzodiazol-5-yl)methyl]-4-fluorobenzene-1-sulfonamide] |
| 2.69 µM | 4.27 µM | Nc1nnc(-c2ccc(Nc3ncccc3-c3ccc(F)cc3)cc2)s1 [Comp 521, N-[4-(5-amino-1,3,4-thiadiazol-2-yl)phenyl]-3-(4-fluorophenyl)pyridin-2-amine] |
| 7.16 µM | 4.22 µM | COc1ccc(-c2cnccc2Nc2ccc(-c3nnc(N)s3)cc2)cc1 [C6, N-[4-(5-amino-1,3,4-thiadiazol-2-yl)phenyl]-3-(4-methoxyphenyl)pyridin-4-amine] |
| 1.53 µM | 3.39 µM | CC(C)Oc1ccc(-c2ccccc2NCc2ccc3[nH]cnc3c2)cc1 [O19, N-(1H-1,3-benzodiazol-5-ylmethyl)-2-[4-(propan-2-yloxy)phenyl]aniline] |
| 4.17 µM | 4.7 µM | COc1ccc(-c2cccnc2Nc2ccc(-c3nnc(N)s3)cc2)cc1 [C5, N-[4-(5-amino-1,3,4-thiadiazol-2-yl)phenyl]-3-(4-methoxyphenyl)pyridin-2-amine] |
| 0.43 µM | 0.42 µM | COc1ccc(-c2c(C)cccc2NCc2ccc3[nH]cnc3c2)cc1OC [O21, N-(1H-1,3-benzodiazol-5-ylmethyl)-2-(3,4-dimethoxyphenyl)-3-methylaniline] |
| 15.1 µM | 10.8 µM | COc1ccc(-c2cnccc2NCc2ccc3[nH]cnc3c2)cc1 [O6, N-(1H-1,3-benzodiazol-5-ylmethyl)-3-(4-methoxyphenyl)pyridin-4-amine] |
| 1.44 µM | 1.74 µM | Cn1cnnc1-c1ccc(Nc2ccccc2-c2ccc(F)cc2)cc1 [Comp 826, 4′-fluoro-N-[4-(4-methyl-4H-1,2,4-triazol-3-yl)phenyl]-[1,1‘-biphenyl]-2-amine] |
| 11.1 µM | 4.24 µM | COc1ccc(-c2ccncc2NCc2ccc3[nH]cnc3c2)cc1 [O7, N-(1H-1,3-benzodiazol-5-ylmethyl)-4-(4-methoxyphenyl)pyridin-3-amine] |

Source: patent US12384772B2, “Inhibitors” (VIVORYON THERAPEUTICS N.V., priority 2017, dated 2025)
